The text below walks through data of ChEMBL document CHEMBL1938343, “Lead optimisation of selective non-zinc binding inhibitors of MMP13. Part 2” (Bioorg Med Chem Lett, 2012).

Data set [1] addresses T1, A disintegrin and metalloproteinase with thrombospondin motifs 4 (Homo sapiens) (UniProt O75173).
T1 sequence (whole entry): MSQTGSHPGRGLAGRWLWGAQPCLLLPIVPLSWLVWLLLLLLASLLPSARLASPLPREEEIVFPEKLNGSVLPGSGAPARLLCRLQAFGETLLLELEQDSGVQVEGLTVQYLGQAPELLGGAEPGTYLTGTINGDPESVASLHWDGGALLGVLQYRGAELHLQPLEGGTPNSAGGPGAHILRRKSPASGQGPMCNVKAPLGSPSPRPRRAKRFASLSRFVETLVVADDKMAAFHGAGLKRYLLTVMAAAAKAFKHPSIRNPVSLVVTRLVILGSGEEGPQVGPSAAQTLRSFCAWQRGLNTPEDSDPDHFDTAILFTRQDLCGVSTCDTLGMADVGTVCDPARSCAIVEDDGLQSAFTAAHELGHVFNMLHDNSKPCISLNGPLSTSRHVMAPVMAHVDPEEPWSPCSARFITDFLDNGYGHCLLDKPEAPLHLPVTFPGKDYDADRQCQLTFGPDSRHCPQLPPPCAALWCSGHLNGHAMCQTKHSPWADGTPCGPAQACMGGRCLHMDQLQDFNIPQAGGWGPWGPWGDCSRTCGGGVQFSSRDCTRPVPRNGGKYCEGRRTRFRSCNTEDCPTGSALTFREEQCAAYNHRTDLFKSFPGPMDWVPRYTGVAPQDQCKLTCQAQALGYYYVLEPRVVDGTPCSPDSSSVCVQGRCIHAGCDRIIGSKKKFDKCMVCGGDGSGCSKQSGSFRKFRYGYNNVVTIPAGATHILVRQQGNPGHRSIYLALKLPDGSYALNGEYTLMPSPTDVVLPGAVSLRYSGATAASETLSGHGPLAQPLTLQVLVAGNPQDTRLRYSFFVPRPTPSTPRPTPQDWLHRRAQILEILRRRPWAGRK
As to the kind of experiment: Inhibition of ADAM-TS4 using dimethoxyfluorescein-Ser-Pro-Leu-Ala-Gln-Ala- Val-Arg-ser-Ser-Arg-Cys-fluorescein as substrate.

Data set [2] in a line: Half life in dog at 1 mg/kg, iv and 1 mg/kg, po. As to conditions: in vivo. The class given is ADME, organism-based, Canis lupus familiaris.
Data set [3] is described as follows: Renal elimination in rat at 2 mg/kg, iv. As to conditions: urine, read-out: Ae. The class given is ADME, organism-based. Also on record: dose 2 mg/kg, route intravenous.
Data set [4] is described as follows: Volume of distribution at steady state in dog at 1 mg/kg, iv and 1 mg/kg, po. The class given is ADME, organism-based, Canis lupus familiaris. Conditions: in vivo, read-out: Vdss.
The target of data set [5] is Matrix metalloproteinase-9 (Homo sapiens, UniProt P14780). As to the kind of experiment: Inhibition of MMP9 using Mca-Pro-cyclohexyl-Ala-Gly-Nva-His-Ala- Dap(Dnp)-NH2 as substrate by fluorometric analysis.
Sequence of Matrix metalloproteinase-9 (P14780 whole entry): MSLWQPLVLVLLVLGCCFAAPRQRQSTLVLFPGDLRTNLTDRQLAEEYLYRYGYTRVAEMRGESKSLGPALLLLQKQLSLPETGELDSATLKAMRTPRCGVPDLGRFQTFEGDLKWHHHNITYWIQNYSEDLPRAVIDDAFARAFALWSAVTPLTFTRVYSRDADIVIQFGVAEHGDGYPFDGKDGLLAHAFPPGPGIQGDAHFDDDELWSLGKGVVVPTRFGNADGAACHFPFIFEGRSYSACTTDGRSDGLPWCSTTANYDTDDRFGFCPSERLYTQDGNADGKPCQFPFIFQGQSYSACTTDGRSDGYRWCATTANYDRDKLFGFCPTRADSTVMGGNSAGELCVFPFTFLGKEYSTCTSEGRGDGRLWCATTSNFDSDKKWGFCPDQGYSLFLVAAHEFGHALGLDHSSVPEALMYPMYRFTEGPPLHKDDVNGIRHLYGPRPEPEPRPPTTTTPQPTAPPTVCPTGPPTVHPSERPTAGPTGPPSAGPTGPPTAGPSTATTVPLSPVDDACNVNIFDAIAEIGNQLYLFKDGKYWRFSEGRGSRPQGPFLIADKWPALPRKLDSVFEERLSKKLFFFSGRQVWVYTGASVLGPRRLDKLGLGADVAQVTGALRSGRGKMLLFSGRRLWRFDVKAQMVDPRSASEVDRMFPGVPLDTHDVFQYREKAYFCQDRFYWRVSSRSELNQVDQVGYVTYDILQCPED
Data set [6] is described as follows: Cytotoxicity in mouse spleen macrophages assessed as phospholipidosis. Conditions: Macrophage.
A short description of data set [7]: Intrinsic clearance in Sprague-Dawley rat hepatocytes assessed per 10^6 cells. The class given is ADME, cell-based, Hepatocyte. As to conditions: Sprague-Dawley, read-out: CLH.
Data set [8] is described as follows: Fraction unbound in dog. The class given is ADME, organism-based, Canis lupus familiaris. Conditions: in vivo.
Data set [9] in a line: Oral bioavailability in dog. As to conditions: in vivo. The class given is ADME, organism-based, Canis lupus familiaris.
The nature of data set [10]: Volume of distribution at steady state in rat at 2 mg/kg, iv. Also noted: dose 2 mg/kg, route intravenous. Conditions: in vivo, read-out: Vdss. The class given is ADME, organism-based.
In data set [11] the target is Matrix metalloproteinase-14 (Homo sapiens, UniProt P50281). Description: Inhibition of MMP14 using Mca-Pro-cyclohexyl-Ala-Gly-Nva-His-Ala- Dap(Dnp)-NH2 as substrate by fluorometric analysis.
A short description of data set [12]: Clearance in rat at 2 mg/kg, iv. The class given is ADME, organism-based. Also on record: dose 2 mg/kg, route intravenous. Conditions: in vivo.

Turning to `CN1CCC(NC(=O)c2ccc(Oc3ccc(C#C[C@]4(O)CN5CCC4CC5)cc3)cc2)CC1`, the INH in data set [1] was > 10 µM. In data set [2], this compound had a half-life of 23 h. Also, the dose excreted in data set [3] is < 1%. Besides, the results for the Vd in data set [4] and in data set [10] were 6.6 L/kg and 12.6 L/kg, respectively. The pIC50 in data set [5] and in data set [11] was < 5 each time. Further, the IC50 in data set [5] (read-out: IC50) and in data set [11] (read-out: IC50) was > 10 µM throughout. The EC50 in data set [6] worked out at 8 µM. Besides, in data set [7], the hepatocyte CLint is < 2 µL/min/1e6 cells. Further, in data set [8], the fraction unbound was 0.47. The compound further displayed a bioavailability in data set [9] of 47%. In data set [12], this compound returned a clearance of 16 mL/min/kg.

A word on the half-life: it is how long it takes for the measured level to halve. Low readings indicate fast loss, high ones slow loss. One may read the pIC50 as −log10 of the IC50, conventionally taken in molar units. Read a low pIC50 as a high IC50. As usually defined, the IC50 is the concentration that gives 50% inhibition. A word on the EC50: it is the concentration at which the effect is half-maximal. As a reminder, the fraction unbound is free concentration divided by total concentration. Lower therefore signals extensive binding. Broadly, the bioavailability is dose-corrected exposure relative to a reference, in per cent. High values mean good availability, low ones poor availability. For orientation: clearance means the rate of elimination divided by the concentration. Read a low clearance as a low capacity for elimination.
